Here are results for six molecules from patent US20250099488A1, “ANTI-PARASITE COMPOUNDS” (AUSTRALIAN NATIONAL UNIVERSITY, priority 2022, published 2025).

Like-named read-outs stand apart in the source and are kept apart here.

Data set [1] relates to P. falciparum infected red blood cells (iRBC) vs uninfected red blood cells (uRBC). The experiment in a line: Uptake of fluorescent cholesterol analogues into infected vs uninfected RBCs (flow cytometry, microscopy). Format: cell-based, Plasmodium falciparum. The conditions noted are these: 24 hrs incubation, ring-stage culture, cholesterol-depleted media. As to the method: (§1) For quantification, events were measured on a LSR II or LSRFortessa Flow Cytometer. NBD/BODIPY fluorescence was detected at 488 nm ex/530 nm em. Hoechst 33342 (Thermo Fisher) fluorescence was detected at 410 nm ex/450 nm em. Resorufin fluorescence was detected at 561 nm ex/610 nm em. Mitotracker Deep Red was detected at 633 nm ex/670 nm em. Dehydroergosterol was detected at 355 nm ex/450 nm em.
(§2) Data were initially processed using FlowJo. RBCs were gated on FSC and SCC. iRBCs (positive) and uRBCs (negative) were differentiated by Hoechst or Mitotracker fluorescence. The geometric mean of fluorescence intensity (mean fluorescence intensity, MFI) and/or the percentage of each population (e.g. Hoechst positive) was calculated with FlowJo. Background fluorescence was subtracted based on unstained controls (buffer or solvent only). Except where otherwise specified, MFI data was normalised between experiments by setting the fluorescence of untreated uRBCs to 1.
Ring-stage parasites at 4% parasitaemia and 2% haematocrit were incubated with 2.02 uM cholesterol analogues or solvent controls in cholesterol-depleted media for 24 hours at 37° C. under microaerophilic conditions. […] Samples were read on a flow cytometer or imaged with fluorescence microscopy as described above. […]
In general terms: In flow cytometry, cells or beads pass a laser one at a time.

The test system is the same in data set [2]. Kind of data set: Uptake and cleavage of steroid-resorufin conjugate in iRBCs vs uRBCs. The class given is cell-based, Plasmodium falciparum. The following applies: steroid-resorufin conjugate (PAYb193), FIG. 10A. As to the method:
Images were collected and deconvoluted on a Deltavision Deconvolution microscope at 1000× magnification, with a resolution of 0.067 μm per pixel. NBD and BODIPY fluorescence were detected at 475/28 nm excitation and 525/48 nm emission. Hoechst fluorescence (nucleic acid) was detected at 390/18 nm and ex/435/48 nm em. Resorufin fluorescence was detected at 575/25 nm ex and 626/45 nm em.
as §1, §2

In a further data set the test system is asexual P. falciparum. The experiment in a line: Plasmodium growth inhibition assay (SYBR Safe), asexual stages. Format: cell-based, Plasmodium falciparum. The conditions noted are these: 72 hrs, FIG. 10B. As to the method: Compounds or solvent controls (DMSO, ethanol, or ethyl acetate) were serially diluted 2-fold across flat-bottom 96-well plates. Complete culture media without compound was used as a negative control. Chloroquine (100-200 nM) {Sigma C6628} was used as a positive control to determine background fluorescence. The parasitaemia of a culture containing predominantly ring stage parasites was counted by Giemsa smear. The parasitaemia was adjusted to 1% by addition of fresh uRBCs, and added to the plate at a final haematocrit of 1%, with 200 μL per well. The plates were incubated at 37° C. under humid microaerophilic conditions. […] Fluorescence was read at 490 nm excitation/520 nm emission on a FLUOstar Optima fluorescence plate reader {BMG Labtech}.
Growth inhibition data were normalised by subtracting background fluorescence from a no-growth control (high drug concentration or time=0 measurement as specified), and expressed as a percentage of the growth in the negative control (media alone or solvent control) either at the indicated timepoint, or to the highest measurement reached during the assay.
P. falciparum asexual parasite assays begun with ring-stage parasites at 1% parasitaemia and 1% haematocrit. 200 nM chloroquine (Sigma C6628) was used as a no-growth control. […] 17]; 8 (2):e54974).
Growth inhibition data were normalised by subtracting background fluorescence, luminescence, absorbance, or percentage of cells from a no-growth or no-viability control (high drug concentration, no-parasite control, or time=0 measurement as specified), and expressed as a percentage of the growth or cell percentage in the negative control (culture media alone or solvent control) at the indicated timepoint (or to the highest measurement reached during the assay for FIG. 15B).

Data set [3] in a line: HEK293 cell viability assay (MTT). The following applies: human, 72 hours, FIG. 21E, conjugate = BC75D, read-out: IC50, HEK293 cytotoxicity. Format: cell-based, human. As to the method: HEK293 cell viability assays began with 5000 cells per well. 10 μg/mL cycloheximide was used as a no-growth control. Metabolic capacity (indicating viability) was measured by incubation with 0.45 mg/mL methylthiazolyldiphenyl-tetrazolium bromide (MTT; Sigma M2128) for two hours followed by crystal solubilisation in SDS.

Data set [4] has as its system chloroquine sensitive P. falciparum strains 3D7 and C2_GC03. The experiment in a line: Growth inhibition of chloroquine sensitive P. falciparum strains. Format: cell-based, Plasmodium falciparum. The conditions noted are these: FIG. 21B/21C. The procedure:
(§3) Growth inhibition was investigated according to methods described by Smilkstein et al. (2004) with modifications by Spry et al. (2013). Compounds or solvent controls (DMSO, ethanol, or ethyl acetate) were serially diluted 2-fold across flat-bottom 96-well plates. Complete culture media without compound was used as a negative control. Chloroquine (100-200 nM) {Sigma C6628} was used as a positive control to determine background fluorescence. The parasitaemia of a culture containing predominantly ring stage parasites was counted by Giemsa smear. The parasitaemia was adjusted to 1% by addition of fresh uRBCs, and added to the plate at a final haematocrit of 1%, with 200 μL per well. The plates were incubated at 37° C. under humid microaerophilic conditions. After 72 hours (or the indicated timepoint), the plates were transferred to a −18° C. freezer to stop the assay and lyse cells. Plates were thawed and lysate was mixed 1:1 with SYBR Safe DNA Gel Stain {Invitrogen 33102}(final concentration 1/10000) diluted in lysis buffer (20 mM TRIS, 5 mM EDTA, 0.008% w/v Saponin, 0.08% w/v Triton-X 100, pH 7.5). Fluorescence was read at 490 nm excitation/520 nm emission on a FLUOstar Optima fluorescence plate reader {BMG Labtech}. […]

Data set [5] concerns chloroquine resistant P. falciparum strain C4_Dd2. Kind of data set: Growth inhibition of chloroquine resistant P. falciparum strain. Format: cell-based, Plasmodium falciparum. The following applies: 72 hours, FIG. 21D; conjugate = BC75D. As to the method:
as §3

As for `CC(C)CCC[C@@H](C)[C@H]1CC[C@H]2[C@@H]3CC=C4C[C@@H](OC(=O)CCCCCNc5ccc([N+](=O)[O-])c6nonc56)CC[C@]4(C)[C@H]3CC[C@]12C` [3-hexanoyl-NBD-cholesterol], in data set [1], the “Uptake in iRBC compared to uRBC (fold change of fluorescence)” value is on record as “not significantly different”. On the same count and under the same terms, next, `CC1=CC(C)=[N+]2C1=C(CC[C@@H](C)[C@H]1CC[C@H]3[C@@H]4CC=C5C[C@@H](O)CC[C@]5(C)[C@H]4CC[C@]13C)c1c(C)cc(C)n1[B-]2(F)F` [24-BODIPY-cholesterol]: “seems to get stuck at the RBC membrane”.

Take `CC12CCC(O)CC1=CCC1C2CCC2(C)C(OC(=O)CCC(=O)OCOc3ccc4nc5ccc(=O)cc-5oc4c3)CCC12` (stereo not drawn) [Payb193, 3β-hydroxyandrost-5-en-17β-yl succinate-(hydroxymethoxy)-resorufin ester]: in data set [2], the “Uptake of the probe, iRBCs vs uRBCs” value is “approximately 2 fold”. Besides, in the data set on asexual P. falciparum, the “Killing of the parasite compared with uncoupled resorufin (dose-response curve)” value is “can kill the parasite at lower concentrations than the uncoupled resorufin base molecule”. One may read the IC50 as the concentration that inhibits the measured activity by half. On to `CCN(CCO)CCCC(C)Nc1ccnc2cc(Cl)ccc12` (stereo not drawn) [hydroxychloroquine, reference compound], for which the IC50 at 72 h in data set [3] (HEK293 cells) was 38.4 µM. In data set [4], the “Fold better efficacy than hydroxychloroquine-steroid conjugates” value is recorded as 1.4-1.6 fold. Consider `CCN(CCCC(C)Nc1ccnc2cc(Cl)ccc12)CCOC(=O)CCC(=O)O[C@H]1CC[C@H]2[C@@H]3CC=C4C[C@@H](O)CC[C@]4(C)[C@H]3CC[C@]12C` (stereo partly drawn) [hydroxychloroquine-steroid conjugate], for which the IC50 at 72 h in data set [3] worked out at 13 µM. Moreover, the “Times more effective at killing resistant parasites than hydroxychloroquine” value in data set [5] worked out at 2.6 fold. Take `C[C@]12CC[C@H]3[C@@H](CC=C4C[C@@H](O)CC[C@@]43C)[C@@H]1CC[C@@H]2OC(=O)CCC(=O)OCOc1ccc2nc3ccc(=O)cc-3oc2c1` [steroid-resorufin conjugate, 3β-Hydroxyandrost-5-en-17β-yl succinate-(hydroxymethoxy)-resorufin ester]: the “Uptake of the probe, iRBCs vs uRBCs” value in data set [2] was “approximately 2 fold”.
